Measurements: ChEMBL document CHEMBL4028893, “Discovery and Optimization of Potent, Cell-Active Pyrazole-Based Inhibitors of Lactate Dehydrogenase (LDH)” (J Med Chem, 2017)
The source made the active and inactive calls. No cut-off for these calls is given here.

Experiments:
[1] = Drug level in human MIAPaCa2 cells by LC-MS/MS analysis; format: ADME, cell-based; conditions: mia paca-2
[2] = target: Isocitrate dehydrogenase [NADP] cytoplasmic (Homo sapiens, UniProt O75874); experiment: Inhibition of wild type IDH1 (unknown origin) using isocitrate as substrate preincubated for 30 mins followed by substrate addition in presence of NADP+ measured up to 5 mins by resorufin-based fluorescence assay
Sequence of Isocitrate dehydrogenase [NADP] cytoplasmic (O75874 whole entry): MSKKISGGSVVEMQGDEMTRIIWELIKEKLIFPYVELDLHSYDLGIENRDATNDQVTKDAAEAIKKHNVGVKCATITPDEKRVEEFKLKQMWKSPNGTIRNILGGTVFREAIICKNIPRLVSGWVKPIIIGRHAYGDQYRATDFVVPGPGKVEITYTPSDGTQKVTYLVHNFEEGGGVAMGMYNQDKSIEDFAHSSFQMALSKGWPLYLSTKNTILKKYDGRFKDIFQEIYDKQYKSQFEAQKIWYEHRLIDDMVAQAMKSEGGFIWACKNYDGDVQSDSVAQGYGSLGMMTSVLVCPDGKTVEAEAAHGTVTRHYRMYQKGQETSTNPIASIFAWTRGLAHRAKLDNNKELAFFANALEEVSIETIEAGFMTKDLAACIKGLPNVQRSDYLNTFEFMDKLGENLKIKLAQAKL

[3] = Drug level in human A673 cells by LC-MS/MS analysis; format: ADME, cell-based
[4] = Inhibition of pig heart MDH using malic acid as substrate preincubated for 10 mins followed by substrate addition measured up to 5 mins by resorufin-based fluorescence assay; design: species or system Sus scrofa
[5] = target: T1, L-lactate dehydrogenase A chain (Homo sapiens, UniProt P00338)
Description: Inhibition of human liver LDHA using sodium pyruvate as substrate after 5 mins in presence of NAPDH and EDTA by diaphorase/resazurin based fluorescence assay

[6] = target: T1, L-lactate dehydrogenase A chain; remark: listed apart in the source
Description: Inhibition of human liver LDHA using sodium pyruvate as substrate after 5 mins in presence of NAPDH and in absence of EDTA by diaphorase/resazurin based fluorescence assay

L-lactate dehydrogenase [7] = target: T2, L-lactate dehydrogenase (Homo sapiens, UniProt V9HWB9); experiment: Inhibition of LDH in human A673 cells assessed as reduction in lactate production preincubated for 2 hrs measured after 30 mins by high throughput fluorescence assay; format: cell-based
L-lactate dehydrogenase [8] = target: T2, L-lactate dehydrogenase; experiment: Inhibition of LDH in human MIAPaCa2 cells assessed as reduction in lactate production preincubated for 2 hrs measured after 30 mins by high throughput fluorescence assay; format: cell-based

Compound | Drug uptake [1] | IC50 [2] | Drug uptake [3] | IC50 [4] | IC50 [5] | IC50 [6] | inhibition (L-lactate dehydrogenase [7]) | inhibition (L-lactate dehydrogenase [8])
Nc1c(Cc2ccc(S(N)(=O)=O)cc2)c(-c2cccc(-c3ccccc3)c2)nn1-c1nc(C(=O)O)cs1 | Active | > 57 µM | Active | 26.8 µM | – | – | – | –
CCOC(=O)c1csc(-n2nc(-c3cccc(-c4ccccc4)c3)c(Cc3ccc(S(N)(=O)=O)cc3)c2C(F)(F)F)n1 | – | – | – | – | > 57 µM | – | – | –
NS(=O)(=O)c1ccc(Oc2c(-c3cccc(-c4ccccc4)c3)nn(-c3nc(C(=O)O)cs3)c2C2CC2)cc1 | Active | – | Active | > 57 µM | – | – | – | –
O=C(O)c1csc(-n2nc(C3CCCCC3)cc2O)n1 | – | – | – | – | > 57 µM | 1.1 µM | inactive | inactive
NS(=O)(=O)c1ccc(Oc2c(-c3ccccc3)nn(-c3nc(C(=O)O)cs3)c2C2CC2)cc1 | – | – | – | – | 0.065 µM | – | – | –
O=C(O)c1csc(-n2nc(-c3ccc(F)cc3F)cc2O)n1 | – | – | – | – | > 57 µM | 0.084 µM | inactive | inactive
O=C(O)c1csc(-n2nc(-c3cccc(-c4ccccc4)c3)cc2O)n1 | – | – | – | – | > 57 µM | 0.266 µM | inactive | inactive
O=C(O)c1csc(-n2nc(-c3ccccc3)cc2O)n1 | – | – | – | – | > 57 µM | 0.144 µM | inactive | inactive
O=C(O)c1csc(-n2nc(-c3ccc(F)c(F)c3)cc2O)n1 | – | – | – | – | > 57 µM | 0.15 µM | inactive | inactive
NC(=O)c1ccc(Cc2c(-c3cccc(-c4ccccc4)c3)nn(-c3nc(C(=O)O)cs3)c2O)cc1 | – | – | – | – | > 57 µM | – | – | –
O=C(O)c1csc(-n2nc(-c3ccc(F)c(F)c3)c(Cc3ccccc3)c2O)n1 | – | – | – | – | > 57 µM | – | – | –
O=C(O)c1csc(-n2nc(-c3ccc(Cl)c(Cl)c3)cc2O)n1 | – | – | – | – | > 57 µM | 0.106 µM | inactive | inactive
O=C(O)c1csc(-n2nc(-c3ccccc3F)cc2O)n1 | – | – | – | – | > 57 µM | 0.134 µM | inactive | inactive
NS(=O)(=O)c1ccc(C(=O)Nc2cn(-c3nc(C(=O)O)cs3)nc2-c2ccccc2)cc1 | – | – | – | – | > 57 µM | – | – | –
NS(=O)(=O)c1ccc(Cc2c(-c3ccccc3)nn(-c3nc(C(=O)O)cs3)c2-c2cccnc2)cc1 | Active | > 57 µM | Active | > 57 µM | – | – | – | –
CC(=O)Nc1cc(-c2ccccc2)nn1-c1nc(C(=O)O)cs1 | – | – | – | – | > 57 µM | 9.57 µM | inactive | inactive
O=C(O)c1csc(-n2nc(-c3cccc(Cl)c3)cc2O)n1 | – | – | – | – | > 57 µM | 0.168 µM | inactive | inactive
NS(=O)(=O)c1ccc(Cc2cn(-c3nc(C(=O)O)cs3)nc2-c2cccc(-c3ccccc3)c2)cc1 | Active | 47.4 µM | Active | 48.6 µM | – | – | – | –
O=C(O)c1csc(-n2nc(-c3ccc(F)cc3)cc2C(F)(F)F)n1 | – | – | – | – | – | – | inactive | inactive
N#Cc1c(Cc2ccc(S(N)(=O)=O)cc2)c(-c2ccccc2)nn1-c1nc(C(=O)O)cs1 | – | – | – | – | 0.115 µM | – | – | –
NS(=O)(=O)c1ccc(Cc2c(-c3cccc(-c4ccccc4)c3)nn(-c3nc(C(=O)O)cs3)c2C(F)(F)F)cc1 | Active | 33.5 µM | Active | 48.6 µM | – | – | – | –
O=C1N[C@](c2ccc(N3CCOCC3)cc2)(c2ccsc2)CC(O)=C1Sc1ccccc1Cl | Active | > 57 µM | Active | > 57 µM | – | – | – | –
O=C(O)c1csc(-n2nc(-c3cccc4ccccc34)cc2O)n1 | – | – | – | – | > 57 µM | 0.213 µM | inactive | inactive
NS(=O)(=O)c1ccc(NCc2cn(-c3nc(C(=O)O)cs3)nc2-c2ccccc2)cc1 | – | – | – | – | > 57 µM | – | – | –
CC(C)c1cc(-c2ccccc2)nn1-c1nc(C(=O)O)cs1 | – | – | – | – | > 57 µM | > 57 µM | inactive | inactive
O=C(O)c1csc(-n2nc(-c3ccc(F)cc3)cc2O)n1 | – | – | – | – | > 57 µM | 0.095 µM | inactive | inactive
O=C(O)c1csc(-n2nc(-c3cccc(-c4ccccc4F)c3)cc2O)n1 | – | – | – | – | > 57 µM | 0.095 µM | inactive | inactive
COc1ccc(-c2cc(O)n(-c3nc(C(=O)O)cs3)n2)cc1 | – | – | – | – | > 57 µM | 0.229 µM | inactive | inactive
O=C(O)c1csc(-n2nc(-c3ccccc3Cl)cc2C(F)(F)F)n1 | – | – | – | – | > 57 µM | > 57 µM | inactive | inactive
